Tests used:
[1] = tested on: rats with spinal cord injury (SCI); experiment: Rat cervical SCI model: neurobehavioral assessment (inclined plane, paw placement, rearing); assay type: in vivo
Experimental: (§1) SCI injury model. This study was performed in accordance with the guidelines of the Institutional Animal Care and Use Committee. Adult female Long-Evans rats (275-350 gm) were anesthetized (Ketamine, 60 mg/kg plus Xylazine, 7.5 mg/kg, i.p.). The dura at C4-5 was exposed via a left hemilaminectomy. A hemi-cervical spinal cord contusion was created using a blunt force impactor (1.3-mm impactor head driven by a 10 gm weight dropped vertically 25 mm) (Soblo sky et al., 2001; Gensel et al., 2006). After SCI, animals were given 10 ml of glucose-free normal saline s.q. Rectal temperature was maintained at ˜37° C. using a servo-controlled warming blanket.
For in vivo gene suppression of SUR1, we used oligodeoxynucleotides that were phosphorothioated at 4 distal bonds to protect against endogenous nucleases (35).
Neurobehavioral assessment. All measurements were performed by blinded evaluators. Performance on the inclined plane was evaluated as described (Rivlin and Tator, 1977). To assess paw placement and vertical exploration (rearing) (Nikulina et al., 2004) animals were videotaped while in a translucent cylinder (19×20 cm). Rearing was quantified as the number of seconds spent with both front paws elevated above shoulder-height during a 3-min period of observation.

[2] = rat, in vivo
Experimental: as §1, with “blanket. Blood gases and serum glucose 10-15 min post-SCI were: pO2, 95±6 mm Hg; pCO2, 46±3 mm Hg; pH, 7.33±0.01; glucose 258±17 mg/dl in controls and pO2, 96±7 mm Hg; pCO2, 45±2 mm Hg; pH, 7.37±0.01; glucose 242±14 mg/dl in glibenclamide-treated animals.” for “blanket.”
Drug delivery. […] During the course of the project, slightly different formulations of drug were used, with the best results obtained using stock solutions made by placing 50 mg (or 25 mg) of drug into 10 ml DMSO, and infusion solutions made by placing 400 μl (or 800 μl) stock into 4.6 ml (or 4.2 ml) unbuffered saline (0.9% NaCl) and adjusting the pH to ˜8.5 using 0.1 N NaOH.

[3] = Tail tip bleeding time in uninjured rats; assay type: in vivo, rat; conditions: for effect on bleeding time: same infusion dose
Experimental: Bleeding times were measured using tail tip bleeding as described (Lorrain et al., 2003).

[4] = male, Long-Evans, rat, in vivo
Excerpt: (§2) Young adult male Long-Evans rats, 240-280 gm, were studied. Rats were anesthetized (Ketamine and Xylazine) and physiological parameters including temperature and blood gases were maintained within appropriate physiological ranges. With the head fixed in a stereotaxic frame, a 6-mm circular craniectomy was created abutting the sagittal and lambdoidal sutures. A posterior location was chosen to emphasize damage to underlying hippocampus (Vink et al., 2001; Floyd et al., 2002). […] Sham controls underwent craniectomy without percussion.

rats with percussion-TBI [5] = experiment: Percussion-TBI rats: extravasated blood (progressive secondary hemorrhage); assay type: in vivo, rat
Excerpt: as §2

rats with percussion-TBI [6] = experiment: Percussion-TBI rats: lesion size and hippocampal histology; assay type: in vivo, rat; conditions: 7 days post-TBI
Excerpt: as §2

rats with percussion-TBI [7] = experiment: Percussion-TBI rats: neurobehavioral function (SFU, SVE); assay type: in vivo, rat
Excerpt: as §2
Spontaneous forelimb use (SFU) was quantified and spontaneous vertical exploration (SVE) was quantified during 7 days post-TBI. SFU measures sensorimotor asymmetry (Schallert et al., 2000) whereas SVE measures not only vestibulomotor function but also time spent in exploratory activity.

[8] = tested on: rats with spinal cord injury (SCI); conditions: rodent model of SCI (Simard et al., 2007); cited from earlier work
[9] = loading dose 10 μg/kg i.p. plus 200 ng/hr s.q.; cited from earlier work
[10] = 1, 3 and 7 d post-SCI, vs vehicle

SMILES: COc1ccc(Cl)cc1C(=O)NCCc1ccc(S(=O)(=O)NC(=O)NC2CCCCC2)cc1 [glibenclamide]
- performance on inclined plane [1, 10]: significantly better performance
- vertical exploratory behavior (rearing) [1, 10]: significantly better performance
- vertical exploration (rearing), time during 3-min observation ([1]; 1 d post-SCI, 200 ng/h s.q.): 42 ± 7 s
- ipsilateral paw placement ([1]; 1 d post-SCI, vs vehicle): significantly better performance
- general mobility ([1]; post-SCI, vs vehicle-treated rats generally not mobile): typically ambulatory and often exhibited proficient exploratory behavior
- serum glucose [2]: 242 ± 14 mg/dL
- tail bleeding time ([3]; n=3-5, P=0.6): 21.5 ± 3.1 s
- effect on bleeding time [3]: no effect
- effect on bleeding time ([3]; listed as Glibenclamide): did not affect
- time required to achieve 90% steady-state serum drug levels [4]: 3 h
- extravasated blood at later times (rats with percussion-TBI [5]; 6 and 24 hr post-TBI, vs vehicle): prevented further increases in blood
- volume of blood in brain homogenate (rats with percussion-TBI [5]; ½ hr post-TBI): did not affect
- hippocampus on Nissl stained sections (rats with percussion-TBI [6]): sparing of hippocampus, including sparing of neurons in CA1, CA3 and dentate gyrus regions
- lesion area on coronal sections at epicenter of injury (rats with percussion-TBI [6]; control 8.2±1.3, P=0.025): 4.4±0.8 mm^2
- spontaneous vertical exploration (SVE) (rats with percussion-TBI [7]; 1, 2 and 7 days post-TBI, vs controls): significantly greater SVE scores
- spontaneous use of forelimb contralateral to injury (rats with percussion-TBI [7]; 2 days post-TBI, controls 3.5±3.5%, P=0.05): 16.5±3.4%
- reduction in lesion volume after SCI [8]: 3 fold
- effect on serum glucose [9]: minimal effects
- estimated serum concentration [9]: < 10 nM

Source: patent US20110263478A1, “SUR1 INHIBITORS FOR THERAPY” (priority 2008, published 2011)
